Measured values: US7598377B2, “Inhibition of phosphoinositide 3-kinase β” (AstraZeneca AB, priority 2002, dated 2009)

Tests used:
Assay type in all cases: biochemical
[1] = tested on: PI 3-kinase immunoprecipitated from human platelets (p85/110 form); test: In vitro PI 3-kinase assay (Example 8), Platelet IP (p85); settings: read-out: Platelet IP (p85) IC50s
Experimental: The effect of pyridine-substituted compounds on PI 3-kinase activity was determined using an in vitro PI 3-kinase assay. This assay was performed using PI 3-kinase immunoprecipitated from human platelets as the enzyme and PI as the substrate. The PI 3-kinase activity was quantitated by measuring the enzymatic incorporation of [^32P] into PI, forming PI([^32P]-3)P, as previously described (Susa et al., 1992, The Journal of Biological Chemistry 267(32):22951-22956.
Washed human platelets were lysed in Triton X-100 lysis buffer (10 mM Tris, pH 7.4, 1% Triton X-100, 2 mM EDTA, 1 mM PMSF) for 30 minutes. The Triton X-100 insoluble fraction was removed by centrifugation of the cell lysates at 15,000 g for 10 minutes. PI 3-kinase was immunoprecipitated by mixing 500 μg of the cell lysate with 1 μg of a rabbit anti-rat antibody against the p85/110 form of PI 3-kinase and 30 μl of 50% Protein A-sepharose beads for 2 hours at 4° C. The Protein A-sepharose-bound PI 3-kinase was isolated by pelleting the beads at 15,000 g for 5 seconds, and washing three times with ice-cold Triton X-100 lysis buffer followed by four washes with PI 3-kinase assay buffer (20 mM HEPES, pH 7.4, 1 mM EGTA, 5 mM MgCl2).
PI stored in CHCl3 was dried under N2, resuspended in the lipid buffer (50 mM HEPES, pH 7.2, 1 mM EDTA) at a final concentration of 330 μg/ml, and sonicated for 6 minutes on ice. PI([^32P]-3)P was generated by mixing the immunoprecipitated PI 3-kinase for 20 minutes with 40 μl of the PI, 10 μl of ATP (1 mM) and ^32P-r-ATP (0.5 μCi, 1 μCi/nmol), 10 μl of 10× kinase buffer, in a final assay volume of 100 μl adjusted with H2O. TGX-was preincubated with the PI 3-kinase for 5 minutes prior to the addition of ATP. The assay was terminated with 100 μl of 1 N HCl, and the PI([^32P]-3)P product extracted with 200 μl chloroform:methanol (1:1) and 500 μl 2 M KCl. The PI([^32P]-3)P in the chloroform phase was resolved by thin layer chromatography using a solvent system containing CHCl3:MeOH:HAC:H2O (43:38:5:7) (v:v:v:v), and visualized by autoradiography. The PI([^32P]-3)P spots were then scraped off from the TLC plates, deacylated with 1 ml methylamine:butanol:methanol (42:9:47) (v:v:v) for 4 hours at 53° C., and quantitated using a liquid scintillation counter (LKB 1209 RackBETA).

P110 γ = molecular target: T1, P110 γ (Homo sapiens, UniProt P48736); test: Isoform selective in vitro PI3K enzyme assay (Example 13), γ recombinant; settings: read-out: P110 γ IC50s
T1 construct: made in house
T1 sequence (P48736 whole entry, species assumed, canonical isoform): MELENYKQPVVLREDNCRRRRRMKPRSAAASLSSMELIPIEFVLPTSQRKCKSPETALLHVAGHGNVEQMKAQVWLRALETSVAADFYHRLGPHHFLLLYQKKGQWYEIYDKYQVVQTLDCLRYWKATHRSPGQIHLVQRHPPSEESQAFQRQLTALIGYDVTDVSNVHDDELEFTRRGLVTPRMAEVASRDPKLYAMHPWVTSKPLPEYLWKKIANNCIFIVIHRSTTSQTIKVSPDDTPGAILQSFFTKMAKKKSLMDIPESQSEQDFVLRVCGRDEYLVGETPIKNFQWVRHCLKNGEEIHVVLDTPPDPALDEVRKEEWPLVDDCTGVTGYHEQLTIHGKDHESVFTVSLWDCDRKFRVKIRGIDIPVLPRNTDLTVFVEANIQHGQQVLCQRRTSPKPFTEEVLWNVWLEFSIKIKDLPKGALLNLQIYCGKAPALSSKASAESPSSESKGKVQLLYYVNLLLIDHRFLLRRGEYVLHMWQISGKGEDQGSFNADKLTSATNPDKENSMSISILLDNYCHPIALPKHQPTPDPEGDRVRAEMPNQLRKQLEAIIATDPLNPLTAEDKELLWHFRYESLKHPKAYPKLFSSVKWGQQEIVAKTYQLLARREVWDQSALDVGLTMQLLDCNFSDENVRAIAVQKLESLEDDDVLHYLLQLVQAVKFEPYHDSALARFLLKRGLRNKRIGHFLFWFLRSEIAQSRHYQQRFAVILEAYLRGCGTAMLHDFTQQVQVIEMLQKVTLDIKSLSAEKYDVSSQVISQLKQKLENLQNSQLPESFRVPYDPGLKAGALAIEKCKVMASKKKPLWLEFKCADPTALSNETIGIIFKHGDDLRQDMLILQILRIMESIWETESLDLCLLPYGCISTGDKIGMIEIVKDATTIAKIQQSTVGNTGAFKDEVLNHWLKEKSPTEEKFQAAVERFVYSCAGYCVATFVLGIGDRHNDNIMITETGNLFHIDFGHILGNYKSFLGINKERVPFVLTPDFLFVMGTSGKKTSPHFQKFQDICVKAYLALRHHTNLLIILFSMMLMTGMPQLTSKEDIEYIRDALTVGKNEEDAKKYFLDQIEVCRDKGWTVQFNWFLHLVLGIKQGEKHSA
Experimental: (§1) In vitro enzyme assays were conducted as a primary screen to determine drug candidate isoform affinity and specificity. The α and β isoforms of the PI3K were immunoprecipitated from a platelet lysate, using an antibodies obtained from Santa Cruz Biotechnology, that recognized specific regions of p110α (sc-7174) and β (sc-603) isoforms. The γ isoform was produced as a recombinant protein in the Kinacia laboratories. […] Standard phosphorylation assays using phosphatidylinositol and ^32P were used to measure the enzyme activity in the immunoprecipates in the presence or absence of an inhibitor. Enzyme activity was determined over a range of inhibitor concentrations to establish an IC50 value.

P110 δ = molecular target: T2, P110 δ (Homo sapiens, UniProt O00329); test: Isoform selective in vitro PI3K enzyme assay (Example 13), δ from THP-1 cells; settings: read-out: P110 δ IC50s
T2 construct: The δ isoform was immunoprecipitated from THP-1 cells; endogenous in cells; host or cells: THP-1 cells (immunoprecipitated with antibody sc-7176)
T2 sequence (O00329 whole entry, canonical isoform): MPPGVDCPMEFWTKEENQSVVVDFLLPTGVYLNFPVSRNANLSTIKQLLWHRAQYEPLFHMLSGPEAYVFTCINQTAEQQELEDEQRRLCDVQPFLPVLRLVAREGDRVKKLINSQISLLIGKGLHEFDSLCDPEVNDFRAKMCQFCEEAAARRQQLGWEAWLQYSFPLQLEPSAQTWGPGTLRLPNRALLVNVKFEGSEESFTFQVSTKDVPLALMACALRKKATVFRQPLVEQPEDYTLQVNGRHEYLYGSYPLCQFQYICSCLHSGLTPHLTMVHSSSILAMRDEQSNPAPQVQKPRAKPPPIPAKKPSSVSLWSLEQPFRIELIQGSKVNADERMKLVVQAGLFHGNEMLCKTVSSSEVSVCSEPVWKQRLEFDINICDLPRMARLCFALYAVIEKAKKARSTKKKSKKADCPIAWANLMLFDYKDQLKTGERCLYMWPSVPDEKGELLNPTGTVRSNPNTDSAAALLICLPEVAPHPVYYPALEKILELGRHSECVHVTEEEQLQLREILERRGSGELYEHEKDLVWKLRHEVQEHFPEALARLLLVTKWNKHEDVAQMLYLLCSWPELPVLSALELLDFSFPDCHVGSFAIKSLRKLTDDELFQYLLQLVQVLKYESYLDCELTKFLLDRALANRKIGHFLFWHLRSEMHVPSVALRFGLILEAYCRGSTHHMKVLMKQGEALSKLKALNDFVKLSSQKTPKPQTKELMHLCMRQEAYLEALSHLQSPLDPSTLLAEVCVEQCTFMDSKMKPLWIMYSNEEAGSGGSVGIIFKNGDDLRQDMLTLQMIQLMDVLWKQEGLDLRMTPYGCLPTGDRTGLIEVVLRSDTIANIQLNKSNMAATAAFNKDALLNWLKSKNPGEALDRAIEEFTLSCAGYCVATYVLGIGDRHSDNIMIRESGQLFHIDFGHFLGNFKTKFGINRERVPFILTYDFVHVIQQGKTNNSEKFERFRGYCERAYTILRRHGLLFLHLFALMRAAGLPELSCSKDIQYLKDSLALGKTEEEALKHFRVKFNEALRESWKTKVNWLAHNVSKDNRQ
T2 sequence (P27986 whole entry partner, canonical isoform): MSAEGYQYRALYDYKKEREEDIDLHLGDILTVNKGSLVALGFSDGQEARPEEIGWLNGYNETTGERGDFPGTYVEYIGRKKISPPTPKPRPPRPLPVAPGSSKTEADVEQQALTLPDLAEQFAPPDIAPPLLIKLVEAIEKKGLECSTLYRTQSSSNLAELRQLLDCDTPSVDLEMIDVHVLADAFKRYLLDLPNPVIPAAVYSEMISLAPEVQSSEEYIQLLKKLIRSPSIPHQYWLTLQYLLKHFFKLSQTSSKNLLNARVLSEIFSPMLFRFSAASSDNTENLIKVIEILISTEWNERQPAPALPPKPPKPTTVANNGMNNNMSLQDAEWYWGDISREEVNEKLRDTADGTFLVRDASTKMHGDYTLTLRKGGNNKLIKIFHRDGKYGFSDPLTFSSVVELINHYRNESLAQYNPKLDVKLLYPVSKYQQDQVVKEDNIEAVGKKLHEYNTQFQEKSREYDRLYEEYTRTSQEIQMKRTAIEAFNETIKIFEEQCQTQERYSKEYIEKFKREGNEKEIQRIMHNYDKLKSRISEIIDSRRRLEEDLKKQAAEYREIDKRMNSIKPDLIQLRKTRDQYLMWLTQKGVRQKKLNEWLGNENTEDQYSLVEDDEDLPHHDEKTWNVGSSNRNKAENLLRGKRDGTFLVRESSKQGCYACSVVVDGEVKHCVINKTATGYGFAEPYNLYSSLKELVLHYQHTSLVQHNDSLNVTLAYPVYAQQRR
Experimental: as §1, with “The α and β isoforms of the PI3K were immunoprecipitated from a platelet lysate, using an antibodies obtained from Santa Cruz Biotechnology, that recognized specific regions of p110α (sc-7174) and β (sc-603) isoforms.” left out

Row | IC50 [1] [nM] | IC50 (P110 γ) [nM] | IC50 (P110 δ) [nM] | Compound
1 | 500 | – | – | 8-Naphthyl-2-(4-pyridinyl)-4(1H)-quinolinone [KN350]
2 | > 100 | – | 5000 | Cc1cc(C(C)Oc2ccccc2)c2oc(-c3ccncc3)cc(=O)c2c1 (stereo not drawn) [KN317, 6-methyl-8-1-(phenoxy)ethyl-2-(4-pyridinyl)-4H-benzopyran-1-one]
3 | 500 | 5000 | 1000 | 6-methyl-8-(2-acetamido)phenylaminomethyl-2-(4-pyridinyl)-4H-benzopyran-1-one [KN326]
4 | 1000 | – | 1000 | O=c1cc(-c2ccncc2)oc2c(OCc3ccccc3)cccc12 [KN335, 8-Benzyloxy-2-(4-pyridinyl)-4H-benzopyran-1-one]
5 | > 10000 | > 10000 | 10000 | O=c1cc(-c2ccncc2)[nH]c2c(Cc3ccccc3)cccc12 [KN346, 8-Benzyl-2-(4-pyridinyl)-4(1H)-quinolinone]
6 | 100 | 7500 | 1000 | Cc1cc(C(C)Nc2cccc(C)n2)c2oc(-c3ccncc3)cc(=O)c2c1 (stereo not drawn) [KN310, 8-1-(6-methylpyridin-2-ylamino)ethyl-6-methyl-2-(4-pyridinyl)-4H-1-benzopyran-4-one]
7 | > 10000 | > 10000 | > 10000 | Cc1cccn2c(=O)cc(-c3ccncc3)nc12 [KN347, 9-methyl-2-(4-pyridinyl)-4H-Pyrido[1,2-a]pyrimidin-4-one]
8 | 10 | 1500 | 500 | Cc1cc(C(C)Nc2ccc(F)cc2C)c2oc(-c3ccncc3)cc(=O)c2c1 (stereo not drawn) [KN303, 8-1-(4-fluoro-2-methylphenylamino)ethyl-6-methyl-2-(4-pyridinyl)-4H-1-benzopyran-4-one]
9 | 1000 | – | 1000 | O=c1cc(-c2ccncc2)nc2c(NCCc3ccccc3)cccn12 [KN316, 9-(2-phenethyl)amino-2-(4-pyridinyl)-4H-Pyrido[1,2-a]pyrimidin-4-one]
10 | 500 | – | – | O=c1cc(-c2ccncc2)oc2c(Nc3cccc(F)c3)cccc12 [KN351, 8-(3-Fluorophenylamino)-2-(4-pyridinyl)-4H-benzopyran-1-one]
11 | 500 | 20000 | 300 | O=c1cc(-c2ccncc2)[nH]c2c(Oc3ccccc3)cccc12 [KN319, 8-phenoxy-2-(4-pyridinyl)-4-(1H)-quinolinone]
12 | – | > 10000 | > 10000 | O=c1cc(-c2ccncc2)oc2cc(OCc3ccccc3)ccc12 [KN342, 7-Benzyloxy-2-(4-pyridinyl)-4H-benzopyran-1-one]

Further lines, the compound ahead of its results:

Row | Compound | IC50 [1] [nM] | IC50 (P110 γ) [nM] | IC50 (P110 δ) [nM]
13 | O=c1cc(-c2ccncc2)nc2c(Cc3ccccc3)cccn12 [KN349, 9-Benzyl-2-(4-pyridinyl)-4H-Pyrido[1,2-a]pyrimidin-4-one] | 500 | > 10000 | 2000
14 | Cc1cc(-c2ccccc2)c2oc(-c3ccncc3)cc(=O)c2c1 [TGX258, 8-Phenyl-6-methyl-2-(4-pyridinyl)-4H-benzopyran-1-one] | – | > 20000 | > 10000
15 | O=c1cc(-c2ccncc2)oc2c(NCc3ccccc3)cccc12 [KN336] | 1000 | 10000 | 200
16 | Cc1cc(C(C)Nc2cccc(C(F)(F)F)c2)c2oc(-c3ccncc3)cc(=O)c2c1 (stereo not drawn) [KN322, 8-1-(3-trifluoromethylphenylamino)ethyl-6-methyl-2-(4-pyridinyl)-4H-1-benzopyran-4-one] | 1000 | – | 1000
17 | O=c1cc(-c2ccncc2)oc2c(Nc3ccccc3)cccc12 [KN341] | 500 | 5000 | 50
18 | Cc1cc(CNc2ccccn2)c2oc(-c3ccncc3)cc(=O)c2c1 [KN315, 6-methyl-8-(2-pyridinyl)aminomethyl-2-(4-pyridinyl)-4H-benzopyran-1-one] | > 100 | 5000 | 5000
19 | Cc1cc(C(C)n2c(C(F)(F)F)nc3ccccc32)c2oc(-c3ccncc3)cc(=O)c2c1 (stereo not drawn) [KN328, 6-methyl-8-1-(2-trifluoromethyl-benzimidazol-1-yl)-ethyl-2-(4-pyridinyl)-4H-benzopyran-1-one] | 50 | – | –
20 | Cc1cc(CNc2ccccc2)c2oc(-c3ccncc3)cc(=O)c2c1 [KN312, 6-methyl-8-phenylaminomethyl-2-(4-pyridinyl)-4H-benzopyran-1-one] | 50 | – | –
21 | COc1cccc2c(=O)cc(-c3ccncc3)[nH]c12 [KN344, 8-methoxy-2-(4-pyridinyl)-4(1H)-quinolinone] | 5000 | > 10000 | –
22 | O=c1cc(-c2ccncc2)[nH]c2c(-c3ccccc3)cccc12 [KN345, 8-phenyl-2-(4-pyridinyl)-4(1H)-quinoline] | 5000 | > 10000 | –
23 | Cc1cc(C(C)Nc2ccccc2)c2oc(-c3cc(C)nc(Cl)c3)cc(=O)c2c1 (stereo not drawn) [KN340, 8-1-(phenylamino)ethyl-6-methyl-2-(2-chloro-6-methyl-4-pyridinyl)-4H-1-benzopyran-4-one] | – | > 10000 | > 10000
24 | Cc1cc(COc2ccccc2)c2oc(-c3ccncc3)cc(=O)c2c1 [KN313, 6-methyl-8-phenoxymethyl-2-(4-pyridinyl)-4H-benzopyran-1-one] | 100 | – | 5000
25 | Cc1cc(F)ccc1Oc1cccc2c(=O)cc(-c3ccncc3)[nH]c12 [KN337, 8-(4-Fluoro-2-methylphenoxy)-2-(4-pyridinyl)-4(1H)-quinolinone] | 200 | > 10000 | 200
